According to patent US20130089512A1, “HETEROARYL IMIDAZOLONE DERIVATIVES AS JAK INHIBITORS” (priority 2010, published 2013):
pIC50: −log10 of the molar value.

Assays:
[1] = target: human JAK1 (aa 850-1154) (Homo sapiens, UniProt P23458); assay: In vitro JAK kinase assay (TR-FRET), JAK1
Method: (§1) The enzymatic activity was assayed using as substrate a biotinylated peptide, poly (GT)-Biotin (CisBio). […] The degree of phosphorylation was detected by TR-FRET (time-resolved fluorescence energy transfer). […] The enzymatic reactions took place for 30 minutes at room temperature. […] Incubate for 3 h and read on Victor 2V spectrofluorometer (PerkinElmer) set to read fluorescence resonance energy transfer.

[2] = target: human JAK3 (aa 795-1124) (Homo sapiens, UniProt P52333); assay: In vitro JAK kinase assay (TR-FRET), JAK3
Method: as §1

[3] = target: human JAK2 (aa 826-1132) (Homo sapiens, UniProt O60674); assay: In vitro JAK kinase assay (TR-FRET), JAK2
Sequence of human JAK2 (aa 826-1132) (O60674 826-1132): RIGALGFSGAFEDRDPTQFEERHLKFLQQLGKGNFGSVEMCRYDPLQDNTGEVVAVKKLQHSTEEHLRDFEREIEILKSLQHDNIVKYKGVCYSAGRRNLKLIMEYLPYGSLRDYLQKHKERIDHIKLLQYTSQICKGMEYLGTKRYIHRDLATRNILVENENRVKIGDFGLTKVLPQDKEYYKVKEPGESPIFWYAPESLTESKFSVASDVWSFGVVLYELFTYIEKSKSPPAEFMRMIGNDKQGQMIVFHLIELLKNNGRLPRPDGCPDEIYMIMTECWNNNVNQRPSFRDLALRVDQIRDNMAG
Method: as §1

Sequence of human JAK3 (aa 795-1124) (P52333 795-1124): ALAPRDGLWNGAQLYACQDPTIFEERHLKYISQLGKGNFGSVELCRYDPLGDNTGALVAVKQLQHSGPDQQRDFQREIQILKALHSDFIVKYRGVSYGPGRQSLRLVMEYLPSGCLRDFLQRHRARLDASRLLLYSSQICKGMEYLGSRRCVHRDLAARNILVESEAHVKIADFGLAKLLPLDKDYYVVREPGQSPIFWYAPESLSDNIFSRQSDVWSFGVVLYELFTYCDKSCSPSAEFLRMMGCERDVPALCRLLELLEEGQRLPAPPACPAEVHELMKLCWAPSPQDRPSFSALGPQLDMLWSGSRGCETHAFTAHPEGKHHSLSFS
Sequence of human JAK1 (aa 850-1154) (P23458 850-1154): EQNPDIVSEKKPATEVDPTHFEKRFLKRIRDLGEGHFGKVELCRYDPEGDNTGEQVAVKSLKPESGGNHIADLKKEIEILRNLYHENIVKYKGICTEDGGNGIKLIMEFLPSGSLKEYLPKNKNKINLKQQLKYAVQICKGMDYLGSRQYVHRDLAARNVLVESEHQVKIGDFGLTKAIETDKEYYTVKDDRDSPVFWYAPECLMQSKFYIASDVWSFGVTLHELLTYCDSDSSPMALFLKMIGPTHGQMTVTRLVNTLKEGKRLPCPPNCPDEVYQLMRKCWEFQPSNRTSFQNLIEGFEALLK

## C[C@@H]1CCCC[C@@H]1n1c(=O)[nH]c2cnc(-c3cnc4ccc(C#N)cn34)nc21 [Example 3, 3-(9-((1S,2R)-2-Methylcyclohexyl)-8-oxo-8,9-dihydro-7H-purin-2-yl)imidazo[1,2-a]pyridine-6-carbonitrile]
[1]
  pIC50: 6.00 to 7.00

## O=c1[nH]c2cnc(-c3cnc4ccc(F)cn34)nc2n1[C@H](CO)c1ccc(F)cn1 [Example 35, (S)-2-(6-Fluoroimidazo[1,2-a]pyridin-3-yl)-9-(1-(5-fluoropyridin-2-yl)-2-hydroxyethyl)-7H-purin-8(9H)-one]
[2]
  pIC50: 6.00 to 7.00
[3]
  pIC50: > 7.00
[1]
  pIC50: 6.00 to 7.00

## N#CC1(n2c(=O)[nH]c3cnc(-c4cnc5ccc(F)cn45)nc32)CCCCC1 [Example 36, 1-(2-(6-Fluoroimidazo[1,2-a]pyridin-3-yl)-8-oxo-7H-purin-9(8H)-yl)cyclohexane carbonitrile]
[2]
  pIC50: 6.00 to 7.00
[3]
  pIC50: > 7.00
[1]
  pIC50: < 6.00

## CC1(C)CC(n2c(=O)[nH]c3cnc(-c4cnc5ccc(F)cn45)nc32)c2cccnc2O1 (stereo not shown) [Example 42, 9-(2,2-Dimethyl-3,4-dihydro-2H-pyrano[2,3-b]pyridin-4-yl)-2-(6-fluoroimidazo[1,2-a]pyridin-3-yl)-7H-purin-8(9H)-one]
[2]
  pIC50: 6.00 to 7.00
[3]
  pIC50: 6.00 to 7.00
[1]
  pIC50: < 6.00

## C[C@H](CC(N)=O)n1c(=O)[nH]c2cnc(-c3cnc4ccc(F)cn34)nc21 [Example 58, (R)-3-(2-(6-Fluoroimidazo[1,2-a]pyridin-3-yl)-8-oxo-7H-purin-9(8H)-yl)butanamide]
[2]
  pIC50: 6.00 to 7.00
[3]
  pIC50: 6.00 to 7.00
[1]
  pIC50: < 6.00

## CS(=O)(=O)N1CCC[C@@H](n2c(=O)[nH]c3cnc(-c4cnc5ccc(F)cn45)nc32)C1 [Example 62, 2-(6-Fluoroimidazo[1,2-a]pyridin-3-yl)-9-[(3R)-1-(methylsulfonyl)piperidin-3-yl]-7,9-dihydro-8H-purin-8-one]
[2]
  pIC50: 6.00 to 7.00
[3]
  pIC50: > 7.00
[1]
  pIC50: < 6.00

## CS(=O)(=O)N1CCC(n2c(=O)[nH]c3ccc(-c4cnc5ccc(F)cn45)nc32)CC1 [Example 71, 5-(6-Fluoroimidazo[1,2-a]pyridin-3-yl)-3-[1-(methylsulfonyl)piperidin-4-yl]-1,3-dihydro-2H-imidazo[4,5-b]pyridin-2-one]
[2]
  pIC50: > 7.00
[3]
  pIC50: > 7.00
[1]
  pIC50: < 6.00

## O=c1[nH]c2cc(F)c(-c3cnc4ccc(F)cn34)nc2n1C1CCOCC1 [Example 73, 6-Fluoro-5-(6-fluoroimidazo[1,2-a]pyridin-3-yl)-3-(tetrahydro-2H-pyran-4-yl)-1,3-dihydro-2H-imidazo[4,5-b]pyridin-2-one]
[2]
  pIC50: > 7.00
[3]
  pIC50: > 7.00
[1]
  pIC50: 6.00 to 7.00

## C[C@H](c1ccc(F)cn1)n1c(=O)[nH]c2cnc(-c3cnn4ccncc34)nc21 [Example 79, (R)-9-(1-(5-Fluoropyridin-2-yl)ethyl)-2-(pyrazolo[1,5-a]pyrazin-3-yl)-7H-purin-8(9H)-one]
[2]
  pIC50: > 7.00
[3]
  pIC50: > 7.00
[1]
  pIC50: > 7.00

## O=c1[nH]c2cnc(-c3cnn4ccncc34)nc2n1CC1CCOCC1 [Example 80, 2-(Pyrazolo[1,5-a]pyrazin-3-yl)-9-((tetrahydro-2H-pyran-4-yl)methyl)-7H-purin-8(9H)-one]
[2]
  pIC50: 6.00 to 7.00
[3]
  pIC50: 6.00 to 7.00
[1]
  pIC50: 6.00 to 7.00

## O=c1[nH]c2cnc(-c3cnn4ccncc34)nc2n1C1CCC(F)(F)CC1 [Example 81, 9-(4,4-Difluorocyclohexyl)-2-(pyrazolo[1,5-a]pyrazin-3-yl)-7H-purin-8(9H)-one]
[2]
  pIC50: > 7.00
[3]
  pIC50: > 7.00
[1]
  pIC50: > 7.00

## O=c1[nH]c2cnc(-c3cnn4cc(F)ccc34)nc2n1C1CCOCC1 [Example 89, 2-(6-Fluoropyrazolo[1,5-a]pyridin-3-yl)-9-(tetrahydro-2H-pyran-4-yl)-7H-purin-8(9H)-one]
[2]
  pIC50: > 7.00
[3]
  pIC50: > 7.00
[1]
  pIC50: < 6.00

## O=c1[nH]c2cnc(-c3cnn4cccnc34)cc2n1C1CCOCC1 [Example 92, 6-(Pyrazolo[1,5-a]pyrimidin-3-yl)-1-(tetrahydro-2H-pyran-4-yl)-1H-imidazo[4,5-c]pyridin-2(3H)-one]
[2]
  pIC50: 6.00 to 7.00
[3]
  pIC50: > 7.00
[1]
  pIC50: 6.00 to 7.00

## O=c1[nH]c2c(N3CCNCC3)nc(-c3cnc4ccc(F)cn34)nc2n1C1CCOCC1 [Example 98, 2-(6-Fluoroimidazo[1,2-a]pyridin-3-yl)-6-(piperazin-1-yl)-9-(tetrahydro-2H-pyran-4-yl)-7H-purin-8(9H)-one]
[2]
  pIC50: > 7.00
[3]
  pIC50: > 7.00
[1]
  pIC50: < 6.00
